Key:
[1] = target: T1, Recombinant human LOXL3 (lysyl oxidase like 3) (Homo sapiens, UniProt P58215); test: LOXL3 inhibition assay (fluorometric, cadaverine/Amplex Red/HRP); assay type: biochemical; settings: IC50 class; recombinant human LOXL3, cadaverine substrate; read-out: Activity Range LOXL3
T1 construct: purchased R&D systems
T1 sequence (P58215 26-753): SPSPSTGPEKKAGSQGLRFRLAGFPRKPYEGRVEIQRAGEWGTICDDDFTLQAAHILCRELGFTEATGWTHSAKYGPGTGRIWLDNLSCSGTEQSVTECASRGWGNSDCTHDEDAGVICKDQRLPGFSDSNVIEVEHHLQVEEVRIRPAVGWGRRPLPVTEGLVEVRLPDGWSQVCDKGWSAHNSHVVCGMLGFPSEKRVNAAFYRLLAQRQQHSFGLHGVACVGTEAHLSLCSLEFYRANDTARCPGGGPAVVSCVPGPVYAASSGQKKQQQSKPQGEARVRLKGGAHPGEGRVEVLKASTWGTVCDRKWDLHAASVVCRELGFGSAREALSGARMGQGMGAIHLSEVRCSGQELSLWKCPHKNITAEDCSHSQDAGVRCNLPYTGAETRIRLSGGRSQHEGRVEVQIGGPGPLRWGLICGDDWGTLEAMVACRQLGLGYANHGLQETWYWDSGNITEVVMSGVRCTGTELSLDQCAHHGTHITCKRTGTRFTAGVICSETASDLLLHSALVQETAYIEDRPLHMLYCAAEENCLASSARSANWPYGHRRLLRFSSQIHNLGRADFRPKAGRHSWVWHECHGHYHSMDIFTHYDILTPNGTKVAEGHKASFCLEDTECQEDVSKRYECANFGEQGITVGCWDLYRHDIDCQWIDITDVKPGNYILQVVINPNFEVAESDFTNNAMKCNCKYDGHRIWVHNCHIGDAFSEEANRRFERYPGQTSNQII
Description: The ability of compounds to inhibit one or more of the lysyl oxidases LOXL2 and/or LOXL3 was determined using a fluorometric assay. This assay measures the activity of lysyl oxidases by coupling the reaction with horseradish peroxidase-catalyzed […]. The activity assay protocol uses cadaverine as substrate that releases hydrogen peroxide upon transformation by the specific LOX family enzyme present in the sample. Hydrogen peroxide is in turn detected using a red fluorescence substrate for HRP-coupled reactions (Amplex Red Enzyme Assays, Thermo Scientific Fisher). This leads to increase in fluorescence that can be easily detected at Ex/Em=540/590 nm in a fluorescence microplate reader.
Enzymes: Recombinant human LOXL2 (lysyl oxidase like 2) and recombinant human LOXL3 (lysyl oxidase like 3) were purchased from R&D systems and assays were performed in 1.2 M urea, 50 mM sodium borate buffer pH 8.0, and 10 mM CaCl.
Reaction: Final concentration in the LOXL2 and LOXL3 assays were as following and performed in a total volume of […]:
Experimental procedure: 5 μl of freshly prepared reaction buffer were delivered to reaction wells. Compounds were resuspended in 100% DMSO at 10 mM and delivered into buffer using acoustic technology (Echo550; nanoliter range). A 3× solution of LOXL2 or LOXL3 in reaction buffer was prepared (“enzyme solution”) and 5 μL of enzyme solution was added into the reaction wells. Buffer only was added to column 1 for no protein control. Reactions were incubated for 30 minutes at 37° C. A 3×mixture of cadaverine, Amplex Red, and HRP (“Substrate/Detection Mix) was prepared and subsequently 5 μL of the mixture added to each reaction well. Progress of reactions was monitored for 60 minutes at 37° C. using Clariostar plate reader (ex 530-12, ems 600-40). For all activity assays, pan-LOX inhibitor CCT365623 (Tang et al, 2017) and LOXL2/LOXL3 inhibitor PAT-1251 (PharmaKea) were included as standards.
Data analysis: Slope of the linear portion of the progress curve was calculated using Clariostar software. Typical analysis interval was between 8-30 min, but varied between experiments. The background subtracted signals (No protein wells are considered as background) were converted to % activity relative to DMSO controls. Data was analyzed using GraphPad Prism 4 with “sigmoidal dose-response (variable slope)”; 4 parameters with Hill Slope. Constraints: Bottom=Constant equal to 0. Top=Must be less than 120.

[2] = target: T2, Recombinant human LOXL2 (lysyl oxidase like 2) (Homo sapiens, UniProt Q9Y4K0); test: LOXL2 inhibition assay (fluorometric, cadaverine/Amplex Red/HRP); assay type: biochemical; settings: IC50 class; recombinant human LOXL2, cadaverine substrate; read-out: Activity Range LOXL2
T2 construct: purchased R&D systems
T2 sequence (Q9Y4K0 26-774): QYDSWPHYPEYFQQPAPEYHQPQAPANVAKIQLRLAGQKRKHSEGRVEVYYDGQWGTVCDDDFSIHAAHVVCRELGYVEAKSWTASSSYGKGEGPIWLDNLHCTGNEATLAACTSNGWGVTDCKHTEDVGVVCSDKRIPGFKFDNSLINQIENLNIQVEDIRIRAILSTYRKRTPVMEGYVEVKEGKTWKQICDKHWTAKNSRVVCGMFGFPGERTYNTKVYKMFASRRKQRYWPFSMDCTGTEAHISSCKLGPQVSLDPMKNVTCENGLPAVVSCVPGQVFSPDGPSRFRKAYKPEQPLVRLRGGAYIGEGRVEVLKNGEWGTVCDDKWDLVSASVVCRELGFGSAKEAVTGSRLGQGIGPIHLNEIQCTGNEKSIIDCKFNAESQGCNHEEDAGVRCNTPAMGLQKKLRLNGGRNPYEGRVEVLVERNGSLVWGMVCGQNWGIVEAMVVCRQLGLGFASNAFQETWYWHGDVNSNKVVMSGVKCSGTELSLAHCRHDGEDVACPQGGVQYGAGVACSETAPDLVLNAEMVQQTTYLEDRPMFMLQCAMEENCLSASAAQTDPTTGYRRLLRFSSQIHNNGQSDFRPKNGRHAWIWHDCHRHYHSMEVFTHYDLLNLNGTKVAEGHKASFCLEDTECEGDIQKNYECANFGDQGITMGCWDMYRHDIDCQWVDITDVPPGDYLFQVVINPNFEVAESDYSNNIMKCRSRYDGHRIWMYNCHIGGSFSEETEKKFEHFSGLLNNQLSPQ
How it was run: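 Both enzymes assayed in 1.2 M urea, 50 mM sodium borate pH 8.0, 10 mM CaCl, with 30 min compound–enzyme preincubation at 37° C before cadaverine/Amplex Red/HRP addition. Fluorescence followed 60 min at 37° C; linear-slope rates, background-subtracted, as % of DMSO control, fitted by 4-parameter variable-slope curve (bottom fixed at 0).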

SMILES | IC50 [1] | IC50 [2]
CS(=O)(=O)[C@H]1C[C@@H](S(=O)(=O)c2cccc(CN)c2)CN(c2ccccc2)C1 (racemic) [Example 23, cis-(3-((-5-(Methylsulfonyl)-1-phenylpiperidin-3-yl)sulfonyl)phenyl)methanamine] | 1 to 30 µM | ≤ 0.5 µM
CS(=O)(=O)N1C[C@H](Oc2cccc(CN)c2)C[C@H](c2ccccc2F)C1 (racemic) [Example 70, cis-(3-((5-(2-Fluorophenyl)-1-(methylsulfonyl)piperidin-3-yl)oxy)phenyl)methanamine 2,2,2-trifluoroacetate] | 1 to 30 µM | ≤ 0.5 µM
CN(C)C(=O)N1C[C@@H](c2ccccc2)C[C@@H](S(=O)(=O)c2cccc(CN)c2)C1.O=C(O)C(F)(F)F (racemic) [Example 74, cis-3-((3-(Aminomethyl)phenyl)sulfonyl)-N,N-dimethyl-5-phenylpiperidine-1-carboxamide 2,2,2-trifluoroacetate] | 1 to 30 µM | ≤ 0.5 µM
NCc1ccc(S(=O)(=O)N2C[C@H](C(=O)N3CCS(=O)(=O)CC3)C[C@@H](c3ccccc3)C2)s1.O=C(O)C(F)(F)F (racemic) [Example 75B, trans-(1-((5-(Aminomethyl)thiophen-2-yl)sulfonyl)-5-phenylpiperidin-3-yl)(1,1-dioxidothiomorpholino)methanone 2,2,2-trifluoroacetate] | – | ≤ 0.5 µM
CS(=O)(=O)[C@@H]1C[C@@H](S(=O)(=O)c2cccc(CN)c2)CN(c2ccccc2)C1 (racemic) [Example 79, trans-(3-((-5-(Methylsulfonyl)-1-phenylpiperidin-3-yl)sulfonyl)phenyl)methanamine] | 1 to 30 µM | ≤ 0.5 µM
CS(=O)(=O)N1CCN(C(=O)[C@H]2C[C@@H](c3ccccc3F)CN(S(=O)(=O)c3ccc(CN)s3)C2)CC1.O=C(O)C(F)(F)F (racemic) [Example 91, cis-(1-((5-(Aminomethyl)thiophen-2-yl)sulfonyl)-5-(2-fluorophenyl)piperidin-3-yl)(4-(methylsulfonyl)piperazin-1-yl)methanone 2,2,2-trifluoroacetate] | – | ≤ 0.5 µM
CS(=O)(=O)[C@H]1C[C@@H](S(=O)(=O)c2cccc(CN)c2)CN(c2ccccc2F)C1 (racemic) [Example 92, cis-(3-((-1-(2-Fluorophenyl)-5-(methylsulfonyl)piperidin-3-yl)sulfonyl)phenyl)methanamine 2,2,2-trifluoroacetate] | 1 to 30 µM | ≤ 0.5 µM
NCc1ccc(S(=O)(=O)N2C[C@H](C(=O)N3CCOCC3)C[C@H](c3ccccc3)C2)s1 [Example 13B, ((3R,5R)-1-((5-(aminomethyl)thiophen-2-yl)sulfonyl)-5-phenylpiperidin-3-yl)(morpholino)methanone] | – | ≤ 0.5 µM

The remaining lines, values ahead:

IC50 [1] | IC50 [2] | SMILES
1 to 30 µM | ≤ 0.5 µM | NCc1cccc(S(=O)(=O)N2C[C@H](C(=O)N3CCS(=O)(=O)CC3)C[C@@H](c3ccccc3)C2)c1 (racemic) [Example 85, trans-(1-((3-(Aminomethyl)phenyl)sulfonyl)-5-phenylpiperidin-3-yl)(1,1-dioxidothiomorpholino)methanone 2,2,2-trifluoroacetate]
> 30 µM | 1 to 30 µM | NCc1cccc(S(=O)(=O)N2C[C@H](C(=O)N3CCS(=O)(=O)CC3)C[C@@H](c3ccccc3)C2)n1 (racemic) [Example 115T, trans-(1-((6-(Aminomethyl)pyridin-2-yl)sulfonyl)-5-phenylpiperidin-3-yl)(1,1-dioxidothiomorpholino)methanone 2,2,2-trifluoroacetate]
– | ≤ 0.5 µM | NCc1ccc(S(=O)(=O)N2C[C@@H](C(=O)N3CCOCC3)C[C@@H](C3CCCCC3)C2)s1.O=C(O)C(F)(F)F (racemic) [Example 120, cis-(1-((5-(Aminomethyl)thiophen-2-yl)sulfonyl)-5-cyclohexylpiperidin-3-yl)(morpholino)methanone 2,2,2-trifluoroacetate]
≤ 0.5 µM | ≤ 0.5 µM | NCc1ccnc(S(=O)(=O)N2C[C@@H](C(=O)N3CCS(=O)(=O)CC3)C[C@@H](c3ccccc3)C2)c1 (racemic) [Example 134, cis-(1-((4-(Aminomethyl)pyridin-2-yl)sulfonyl)-5-phenylpiperidin-3-yl)(1,1-dioxidothiomorpholino)methanone 2,2,2-trifluoroacetate]
1 to 30 µM | 0.5 to 1 µM | NCc1cccc(S(=O)(=O)N2C[C@@H](C(=O)N3CCOCC3)C[C@@H](C3CCCCC3)C2)c1 (racemic) [Example 139, cis-(1-((3-(Aminomethyl)phenyl)sulfonyl)-5-cyclohexylpiperidin-3-yl)(morpholino)methanone]
1 to 30 µM | 0.5 to 1 µM | NCc1cccc(S(=O)(=O)N2C[C@@H](C(=O)N3CCS(=O)(=O)CC3)C[C@@H](C3CCCCC3)C2)c1 (racemic) [Example 140, cis-(1-((3-(Aminomethyl)phenyl)sulfonyl)-5-cyclohexylpiperidin-3-yl)(1,1-dioxidothiomorpholino)methanone]
≤ 0.5 µM | ≤ 0.5 µM | CN(C)C(=O)[C@H]1C[C@@H](C2CCCCC2)CN(S(=O)(=O)c2cc(CN)ccn2)C1 (racemic) [Example 144, cis-1-((4-(Aminomethyl)pyridin-2-yl)sulfonyl)-5-cyclohexyl-N,N-dimethylpiperidine-3-carboxamide 2,2,2-trifluoroacetate]
0.5 to 1 µM | ≤ 0.5 µM | NCc1ccnc(S(=O)(=O)N2C[C@@H](C(=O)N3CCOCC3)C[C@@H](C3CCCCC3)C2)c1 (racemic) [Example 145, cis-(1-((4-(Aminomethyl)pyridin-2-yl)sulfonyl)-5-cyclohexylpiperidin-3-yl)(morpholino)methanone 2,2,2-trifluoroacetate]

Reference: patent publication US20230310445A1, “LOX ENZYME INHIBITING METHODS AND COMPOSITIONS” (ANOVIA BIOSCIENCES, INC., priority 2020, published 2023)
